Test results taken from US20260294770A1, “FORMULATIONS OF NARINGENIN” (DEBUT BIOTECHNOLOGY, INC., priority 2023, published 2026).

Assays:
[1] = cited from earlier work
C2CD4B = assay: Downregulation of gene expression and/or activity, 1% naringenin: C2CD4B
Description: (§1) In certain embodiments, administration of a composition comprising naringenin leads to up-regulation of LCE5A, KRT77, ALOXE3, KRT1, HPGD, MUCL1, CASP14, WFDC12, KRT10, DNASE1L2, IL37, SERPINB12, HAL, UPK1A, CALML5, LCE2B, and/or MIR205. In certain embodiments, administration of a composition comprising naringenin leads to down-regulation of CCL11, CSF2, IL23A, IL11, BMP6, IL13RA2, C2CD4A, NR4A2, C2CD4B, FGF2, FARP4, GDF15, THBS1, HSPA1A, PTGS2, and/or DKK1. Tables 10 and 11 provide data for upregulation and downregulation respectively of certain genes after administration of compositions comprising 1% naringenin.
C2 calcium dependent domain containing 4B (C2CD4B) plays a role in the inflammatory response. In certain embodiments, downregulation of C2CD4B results in reduction in inflammation. In certain embodiments, the administration of composition comprising naringenin results in at least about 5 to about 15-fold downregulation of expression and/or activity of C2CD4B. In certain embodiments, the administration of composition comprising naringenin results in at least about ten (10) fold downregulation of expression and/or activity of C2CD4B.

FGF2 = assay: Downregulation of gene expression and/or activity, 1% naringenin: FGF2; conditions: negative = downregulation
Description: as §1

FABP4 = assay: Downregulation of gene expression and/or activity, 1% naringenin: FABP4
Description: as §1
Fatty acid binding protein 4 (FABP4) plays a role in metabolic inflammation from the fat tissue. FABP4 acts at the interface of metabolic and inflammatory pathways in adipocytes and macrophages and plays important roles in the development of insulin resistance, diabetes mellitus, and atherosclerosis. In certain embodiments, downregulation of FABP4 leads to reduced metabolic inflammation from the fat tissue signaling. In certain embodiments, the administration of composition comprising naringenin results in at least about 2 to about 10-fold downregulation of expression and/or activity of FABP4. In certain embodiments, the administration of composition comprising naringenin results in at least about five (5) fold downregulation of expression and/or activity of FABP4.

ALOXE3 = assay: Upregulation of gene expression and/or activity, 1% naringenin: ALOXE3
Description: as §1
Arachidonate lipoxygenase 3 (ALOXE3) is involved in formation of epidermis lipids. In particular, ALOXE3 helps add an oxygen molecule to certain fatty acids to produce substances called fatty acid hydroperoxides. The enzyme encoded by ALOXE3 is a hydroperoxide isomerase that synthesizes a unique type of epoxy alcohol (8R-hydroxy-11R,12R-epoxyeicosa-5Z,9E,14Z-trienoic acid) from 12R-hydroperoxyeicosatetraenoic acid (12R-HPETE). This epoxy alcohol can activate the nuclear receptor peroxisome proliferator-activated receptor alpha (PPARalpha), which is implicated in epidermal differentiation. Loss of function of the enzyme encoded by this gene results in ichthyosis, implicating the function of this gene in the differentiation of human skin. […]

IL23A = assay: Downregulation of gene expression and/or activity, 1% naringenin: IL23A
Description: as §1
Interleukin 23A (1L23A) plays a role in the inflammatory pathway. In certain embodiments of the invention, downregulation of IL23A leads to an anti-inflammatory activity. In certain embodiments, the administration of composition comprising naringenin results in at least about 10 to about 20-fold downregulation of expression and/or activity of 1L23A. In certain embodiments, the administration of composition comprising naringenin results in at least about fifteen (15) fold downregulation of expression and/or activity of IL23A.

psoriasis models = conditions: cited from earlier work
SERPINB12 = assay: Upregulation of gene expression and/or activity, 1% naringenin: SERPINB12
Description: as §1
Serine protease inhibitor (SERPINB12) plays a role in protection of epithelial cells. The intracellular serine protease inhibitors (serpins) are an important family of proteins that protect cells form proteinase-mediated injury. SERPINB12 is broadly expressed and is likely to protect cells, including epithelial cells, from both endogenous and exogenous peptidases. In certain embodiments, compositions comprising naringenin leads to upregulation of SERPINB12, which leads to increase in protection of epithelial cells. In certain embodiments, the administration of composition comprising naringenin results in at least about 5 to about 20-fold upregulation of expression and/or activity of SERPINB12. […]

GDF15 = assay: Downregulation of gene expression and/or activity, 1% naringenin: GDF15
Description: as §1
Growth differentiation factor 15 (GDF15) plays a role in the inflammatory response. In certain embodiments, downregulation of GDF15 results in reduction in inflammation. In certain embodiments, the administration of composition comprising naringenin results in at least about 2 to about 10-fold downregulation of expression and/or activity of GDF15. In certain embodiments, the administration of composition comprising naringenin results in at least about five (5) fold downregulation of expression and/or activity of GDF15.

[2] = ABTS antioxidant assay (aqueous); type: biochemical; conditions: for % Radical Inhibition: aqueous
Description: The 2,2′-Azinobis [3-ethylbenzothiazoline-6-sulfonic acid]-diammonium salt (ABTS) antioxidant assay is designed to evaluate the antioxidant activity of compositions comprising naringenin in an aqueous medium. ABTS+ solution is generated as a free radical and used to measure relative ability of a compound to scavenge free radicals. Reduction of the absorbance at 734 nm was standardized to solvent control as an indication of ABTS+ scavenging.

mouse models = conditions: intraperitoneal; cited from earlier work

O=C1C[C@@H](c2ccc(O)cc2)Oc2cc(O)cc(O)c21 [naringenin, (2S)-5,7-Dihydroxy-2-(4-hydroxyphenyl)-2,3-dihydro-4H-1-benzopyran-4-one]
Safety on oral ingestion [1]: generally considered safe for oral ingestion | fold downregulation in expression and/or activity of C2CD4B (C2CD4B): ~8 fold | Fold-increase (downregulation table) C2CD4B (C2CD4B; negative = downregulation): −8 fold | Fold-increase (downregulation table) FGF2 (FGF2): −7 fold | fold downregulation in expression and/or activity of FABP4 (FABP4): ~7 fold | Fold-increase (downregulation table) FABP4 (FABP4; negative = downregulation): −7 fold | Fold-increase in expression and/or activity of ALOXE3 (ALOXE3): ~12 fold | fold downregulation in expression and/or activity of IL23A (IL23A): ~18 fold | Skin barrier restoration (psoriasis models): restoration of skin barrier | Fold-increase in expression and/or activity of SERPINB12 (SERPINB12): ~13 fold | fold downregulation in expression and/or activity of GDF15 (GDF15): ~6 fold | Fold-increase (downregulation table) GDF15 (GDF15; negative = downregulation): −6 fold | % Radical Inhibition ([2]; 0.0045 % w/w naringenin): 47.50% | % Radical Inhibition ([2]; 0.009 % w/w naringenin): 55.45% | % Radical Inhibition ([2]; 0.018 % w/w naringenin): 65.39% | IC50 antioxidant activity (ABTS) ([2]; aqueous solvent system, calculated): 0.0058 % w/w | Lowest concentration with antioxidant activity ([2]; aqueous systems): ≤ 0.001 % w/w | Cytokine production (mouse models): lowers cytokine production | Edema (mouse models): effectively inhibits edema | Symptoms associated with atopic dermatitis (mouse models): lowers symptoms associated with atopic dermatitis | UVB-induced skin damage (mouse models): inhibits UVB-induced skin damage
